The results in this text go back to BindingDB's records for doi:10.1016/s0960-894x(03)00528-6 (Aston University, 2003).

As a reminder, the pIC50 is the IC50 on a negative log10 scale, so that one unit is a factor of ten.

pIC50: −log10 of the molar value.

In this test the target is Arachidonate 15-lipoxygenase (Oryctolagus cuniculus). The test is described as follows: In vitro inhibitory activity of compound on rabbit reticulocyte 15-lipoxygenase.
`O=C(/C=C/c1ccc(NC(=O)c2ccccc2O)cc1)Nc1ccc(O)c(O)c1` [N-{4-[2-(3,4-Dihydroxy-phenylcarbamoyl)-vinyl]-phenyl}-2-hydroxy-benzamide] showed a pIC50 of 5.83.

`O=C(Nc1ccc(NC(=O)c2ccccc2O)cc1)Nc1ccc(O)c(O)c1` [N-{4-[3-(3,4-Dihydroxy-phenyl)-ureido]-phenyl}-2-hydroxy-benzamide]: the pIC50 is 5.82.

Compound `O=C(CCc1ccc(NC(=O)c2ccccc2O)cc1)Nc1ccc(O)c(O)c1` [N-{4-[2-(3,4-Dihydroxy-phenylcarbamoyl)-ethyl]-phenyl}-2-hydroxy-benzamide] showed a negative logarithm of the IC50 (pIC50) of 5.84.

`O=C(Nc1ccc(O)c(O)c1)c1ccc(NC(=O)c2ccccc2O)cc1` [N-(4-{[(3,4-dihydroxyphenyl)amino]carbonyl}phenyl)-2-hydroxybenzamide] had a pIC50 of 5.90.

Regarding `O=C(Nc1ccc(O)c(O)c1)c1ccc(NCc2ccccc2O)cc1` [N-(3,4-Dihydroxy-phenyl)-4-(2-hydroxy-benzylamino)-benzamide], the pIC50 is 6.00. The pIC50 values of the last two compounds are within 0.2 log units of each other.
